How the values were obtained:
Conditions in all cases: incubation time: 72 h
DU-4475 [1] = test: drug sensitivity score (DSS), CellTiter-Blue viability (DSS (AUC-based score)); higher = stronger viability inhibition; extreme values may be limits of the assay
Description: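 DSRT with the CellTiter-Blue (resazurin reduction) viability readout, fluorescence 560/590 nm, 72 h incubation. Plates were normalised to DMSO and benzethonium chloride controls. DSS is computed from the area under the fitted dose-response curve (5 or 9 concentrations).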

Hs578T = test: normalised viability (% of control), CellTiter-Blue; higher = more viable cells (about 100 = DMSO control)
Description: (§1)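 DSRT, CellTiter-Blue viability, 72 h incubation. Signal is normalised to DMSO and benzethonium chloride controls. Value is the normalised response at dose 3.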

HCC1937 = test: as above
Description: as §1

CAL-51 = test: as above
Description: as §1

HDQ-P1 = test: as above
Description: as §1

SK-BR-3 = test: as above
Description: as §1

CAL-85-1 = test: as above
Description: as §1

MFM-223 = test: as above
Description: as §1

HCC1599 = test: as above
Description: as §1

MDA-MB-453 = test: as above
Description: as §1

DU-4475 [2] = test: as above
Description: as §1

MDA-MB-231 = test: as above
Description: as §1

HCC1143 = test: as above
Description: as §1

BT-549 = test: as above
Description: as §1

CAL-148 = test: as above
Description: as §1

MDA-MB-436 = test: as above
Description: as §1

MDA-MB-468 = test: as above
Description: as §1

BT-474 = test: as above
Description: as §1

CAL-120 = test: as above
Description: as §1

| SMILES | drug sensitivity score (DU-4475 [1]) | normalised viability (Hs578T; 10 nM) [%] | normalised viability (Hs578T; 100 nM) [%] | normalised viability (HCC1937; 100 nM) [%] | normalised viability (CAL-51; 10 nM) [%] | normalised viability (HDQ-P1; 10 nM) [%] | normalised viability (SK-BR-3; 100 nM) [%] | normalised viability (CAL-85-1; 10 nM) [%] | normalised viability (MFM-223; 100 nM) [%] | normalised viability (HCC1599; 100 nM) [%] | normalised viability (MDA-MB-453; 10 nM) [%] | normalised viability (DU-4475 [2]; 10 nM) [%] | normalised viability (MDA-MB-231; 100 nM) [%] | normalised viability (HCC1143; 100 nM) [%] | normalised viability (BT-549; 100 nM) [%] | normalised viability (CAL-148; 10 nM) [%] | normalised viability (MDA-MB-436; 100 nM) [%] | normalised viability (MDA-MB-468; 100 nM) [%] | normalised viability (BT-474; 100 nM) [%] | normalised viability (CAL-120; 100 nM) [%] | other results |
| --- | --- | --- | --- | --- | --- | --- | --- | --- | --- | --- | --- | --- | --- | --- | --- | --- | --- | --- | --- | --- | --- |
| COc1ncc(-c2ccc3nccc(-c4ccnnc4)c3c2)cc1NS(=O)(=O)c1ccc(F)cc1F | 10.8 | 76.8 |  |  |  |  |  |  |  |  |  |  |  |  |  |  |  |  |  |  | normalised viability (HCC1937; 10 nM): 78.5%; normalised viability (CAL-51; 1 nM): 85.7%; normalised viability (HDQ-P1; 1 nM): 97.9%; normalised viability (SK-BR-3; 10 nM): 32.7%; normalised viability (CAL-85-1; 1 nM): 88.8%; normalised viability (MFM-223; 10 nM): 53.1%; normalised viability (HCC1599; 10 nM): 57.1%; normalised viability (MDA-MB-453; 1 nM): 89.3%; normalised viability (DU-4475 [2]; 1 nM): 88.1%; normalised viability (MDA-MB-231; 10 nM): 80%; normalised viability (HCC1143; 10 nM): 68.2%; normalised viability (BT-549; 10 nM): 95.9%; normalised viability (CAL-148; 1 nM): 111%; normalised viability (MDA-MB-436; 10 nM): 83%; normalised viability (MDA-MB-468; 10 nM): 86.2%; normalised viability (BT-474; 10 nM): 64.7%; normalised viability (CAL-120; 10 nM): 60.2% |
| C[C@@]1(C(=O)Nc2ccc(F)nc2)CCCN1c1nc(Nc2cc(C3CC3)n[nH]2)c2cccn2n1 | 9.27 |  | 79.4 | 88.3 | 97 | 89.5 | 92.6 | 93.5 | 88.2 | 73.3 | 112 | 90.4 | 93.8 | 72.8 | 109 | 94 | 92.6 | 101 | 118 | 91.8 |  |
| COc1c(C)cnc(Cn2cnc3c(Cl)nc(N)nc32)c1C [BIIB021] | 22 |  | 64.7 | 59.6 | 100 | 114 | 23.9 | 87.5 | 53.9 | 101 | 76.4 | 82.6 | 61.4 | 58.8 | 52.6 | 82.3 | 89.8 | 68.9 | 59.4 | 27.6 |  |
| CC(C)C[C@H](NC(=O)[C@H](Cc1ccccc1)NC(=O)c1cnccn1)B(O)O [Bortezomib] | 20.9 | 87.6 |  |  |  |  |  |  |  |  |  |  |  |  |  |  |  |  |  |  | normalised viability (HCC1937; 10 nM): 19.6%; normalised viability (CAL-51; 1 nM): 99.9%; normalised viability (HDQ-P1; 1 nM): 83.8%; normalised viability (SK-BR-3; 10 nM): 22.4%; normalised viability (CAL-85-1; 1 nM): 106%; normalised viability (MFM-223; 10 nM): 38.1%; normalised viability (HCC1599; 10 nM): 110%; normalised viability (MDA-MB-453; 1 nM): 105%; normalised viability (DU-4475 [2]; 1 nM): 120%; normalised viability (MDA-MB-231; 10 nM): 16.2%; normalised viability (HCC1143; 10 nM): 52.1%; normalised viability (BT-549; 10 nM): 39.5%; normalised viability (CAL-148; 1 nM): 91.2%; normalised viability (MDA-MB-436; 10 nM): 98.9%; normalised viability (MDA-MB-468; 10 nM): 12%; normalised viability (BT-474; 10 nM): 50.8%; normalised viability (CAL-120; 10 nM): 27.3% |
| CS(=O)(=O)OCCCCOS(C)(=O)=O [Busulfan] | 0 |  |  |  |  |  |  |  |  |  |  |  |  |  |  |  |  |  |  |  | normalised viability (Hs578T; 1000 nM): 91.2%; normalised viability (HCC1937; 1000 nM): 94.6%; normalised viability (CAL-51; 100 nM): 95.3%; normalised viability (HDQ-P1; 100 nM): 98.1%; normalised viability (SK-BR-3; 1000 nM): 97.5%; normalised viability (CAL-85-1; 100 nM): 115%; normalised viability (MFM-223; 1000 nM): 90.3%; normalised viability (HCC1599; 1000 nM): 101%; normalised viability (MDA-MB-453; 100 nM): 102%; normalised viability (DU-4475 [2]; 100 nM): 91.4%; normalised viability (MDA-MB-231; 1000 nM): 99.5%; normalised viability (HCC1143; 1000 nM): 124%; normalised viability (BT-549; 1000 nM): 85.1%; normalised viability (CAL-148; 100 nM): 106%; normalised viability (MDA-MB-436; 1000 nM): 93.3%; normalised viability (MDA-MB-468; 1000 nM): 114%; normalised viability (BT-474; 1000 nM): 110%; normalised viability (CAL-120; 1000 nM): 113% |
| C#Cc1cccc(Nc2ncnc3cc(OC)c(OCCCCCCC(=O)NO)cc23)c1 [CUDC-101] | 10.6 |  | 70.2 | 88.8 | 113 | 86.3 | 58.9 | 93 | 63.3 | 83.4 | 87.4 | 101 | 91.2 | 79.7 | 97.6 | 83.6 | 117 | 66.2 | 89.2 | 67.1 |  |
| COc1cccc2c1C(=O)c1c(O)c3c(c(O)c1C2=O)C[C@@](O)(C(C)=O)C[C@@H]3O[C@H]1C[C@H](N)[C@H](O)[C@H](C)O1 [Daunorubicin] | 14 | 85.9 |  |  |  |  |  |  |  |  |  |  |  |  |  |  |  |  |  |  | normalised viability (HCC1937; 10 nM): 77.9%; normalised viability (CAL-51; 1 nM): 99.8%; normalised viability (HDQ-P1; 1 nM): 153%; normalised viability (SK-BR-3; 10 nM): 87.3%; normalised viability (CAL-85-1; 1 nM): 102%; normalised viability (MFM-223; 10 nM): 90.9%; normalised viability (HCC1599; 10 nM): 104%; normalised viability (MDA-MB-453; 1 nM): 103%; normalised viability (DU-4475 [2]; 1 nM): 95.8%; normalised viability (MDA-MB-231; 10 nM): 85.2%; normalised viability (HCC1143; 10 nM): 79.2%; normalised viability (BT-549; 10 nM): 95.1%; normalised viability (CAL-148; 1 nM): 103%; normalised viability (MDA-MB-436; 10 nM): 92.1%; normalised viability (MDA-MB-468; 10 nM): 99.8%; normalised viability (BT-474; 10 nM): 115%; normalised viability (CAL-120; 10 nM): 79% |
| CN1CCN(c2ccc3nc(-c4c(N)c5c(F)cccc5[nH]c4=O)[nH]c3c2)CC1 [Dovitinib] | 0 |  | 87 | 95.6 | 111 | 95.7 | 101 | 89.2 | 80.2 | 88.2 | 87.7 | 99.8 | 80.2 | 84.5 | 90.5 | 94.7 | 99.7 | 86.9 | 115 | 86.4 |  |
| O=c1[nH]c(=O)n([C@H]2C[C@H](O)[C@@H](CO)O2)cc1F [Floxuridine] | 0 |  | 85.8 | 84.5 | 91.8 | 107 | 53 | 93.1 | 92.6 | 97.2 | 98.5 | 114 | 97.4 | 101 | 93.4 | 99.8 | 72.6 | 51.9 | 117 | 66.2 |  |
| O=c1[nH]cc(F)c(=O)[nH]1 [Fluorouracil] | 1.34 |  | 115 | 104 | 105 | 103 | 87 | 94.7 | 96.5 | 102 | 116 | 97 | 106 | 97.7 | 107 | 108 | 89.1 | 104 | 116 | 111 |  |

Reference: the supplement of paper PMC4862054
